According to patent US11976280B2, “SMAC/Diablo inhibitors useful for treating cancer” (THE NATIONAL INSTITUTE FOR BIOTECHNOLOGY IN THE NEGEV LTD., priority 2017, dated 2024):
d = 2'-deoxy (DNA); r = 2'-OH (RNA)

Experiments:
[1] = test system: MDA-MB-231 cell xenografts; assay: MDA-MB-231 breast cancer xenograft in nude mice; type: in vivo; conditions: 700 nM
Description: FIGS. 5A-5G depict that si-hSMAC-A inhibited cell growth in vitro and tumor growth of breast cancer xenografts: (FIG. A) MDA-MB-231 cells were transfected with si-NT (50 nM) or si-hSMAC-A (100 nM) and analyzed for cell growth at the indicated time using the SRB method (n=3) (Control (●), si-NT (◯), si-hSMAC-A (▴); (FIG. 5B) MDA-MB-231 cells were transfected with si-NT or si-hSMAC-A and at the indicated time cells were harvested and analyzed for SMAC/Diablo levels by immunoblotting. (3-actin was used as a loading control; (FIG. 5C) MDA-MB-231 cells (3×10^6 cells/mouse) were inoculated into nude mice. Tumor volumes were monitored (using a digital caliper) and on day 18, the mice were divided into two groups (n=8 each) with each mouse in the group containing a tumor with a volume between 60 and 100 mm^3 and similar average volumes measured per group. The two mice groups were subjected to the following treatments: Xenografts were injected with si-NT (●, 350 nM) or si-hSMAC-A (▴, 700 nM). (FIG. 5D) Represents photomicrograph of dissected tumors from mouse MDA-MB-231 cell xenografts treated with si-NT or si-hSMAC-A; (FIG. 5E) Bar-graph represents dissected tumors weight from MDA-MB-231 cell xenografts; calculated average tumor volumes are presented as means±SEM, ***P<0.001 (FIG. 5F, FIG. 5G) Dissected tumors were subjected to immunohistochemistry. […]

[2] = test system: A549 lung cancer xenografts; assay: Histology and IHC of residual tumor morphology (H&E, SP-C, podoplanin, CD31, α-SMA); type: in vivo, mice
Description: Tissue microarrays (MC5003, LC807) containing cancer and normal tissues purchased from US Biomax (US Biomax, Inc. USA) and formalin-fixed and paraffin-embedded tumor sections were immunohistochemistry (IHC) stained. Sections were deparaffinized using xylene and a graded ethanol series. Endogenous peroxidase activity was blocked by incubating the sections in 3% H2O2 for 10 minutes. Antigen retrieval was performed in 0.01M citrate buffer (pH 6.0) in 95° C.-98° C. for 20 minutes. After washing sections with PBS containing 0.1% Triton-X100 (pH 7.4), non-specific antibody binding was reduced by incubating the sections in 10% normal goat serum for 2 hr. After decanting excess serum, sections were incubated overnight at 4° C. with primary antibodies (sources and dilutions are detailed in Supplementary Table 1). Sections were washed with PBST. For IHC, endogenous peroxidase activity was blocked by incubating the sections in 3% H2O2 for […]. After washing thoroughly with PBST, the sections were incubated for 2 h with anti-mouse or anti rabbit (1:250) secondary antibodies conjugated to HRP, as appropriate. Sections were washed five times in PBST and the peroxidase reaction was subsequently visualized by incubating with 3,3-diaminobenzidine (DAB) (ImmPact-DAB, Burlingame, CA). After rinsing in water, the sections were counterstained with hematoxylin, and mounted with Vectashield mounting medium (Vector Laboratories, Burigame, CA). Finally, the sections were observed under a microscope (Leica DM2500) and images were collected at 20× magnification with the same light intensity and exposure time.
These features can be interpreted as indicative of the cancer cells in si-hSMAC-A-TTs having undergone a differentiation process. To investigate this point, we analyzed the expression of the pulmonary-associated surfactant protein c (SP-C) ([…]), a component of the surface-active lipoprotein complex that is required for proper biophysical function of the lung, and found in alveolar epithelial type II (AT2) cells (Barkauskas, C. E. et al., 2013. J Clin Invest 123, 3025-3036). […] The expression of the AT1 cells marker podoplanin (also known as T1α, PDPN), a membranal mucin-type sialoglycoprotein (Barkauskas et al., ibid), was also assessed (FIG. 4D, 4E). […] (FIG. 4F) Photomicrograph of si-hSMAC-A-treated tumor stained with toluidine blue. Arrows indicate glandular-like clusters surrounded by a chain of cells.
In contrast, in si-NT-TTs, the CD31-positive cells were flattened and randomly dispersed over the entire area of the tumor tissue (FIG. 7G). The results of the histological analysis could reflect a scenario whereby si-NT-TTs CD31-positive cells are involved in the process of tumor angiogenesis, while in si-hSMAC-A-TTs, the cellular organization more closely resembles the normal physiological alveolar endothelial arrangement designed for 02 exchange. A schematic presentation of a cross-section through alveoli is offered for comparison with the glandular/alveolar-like structures observed in the si-hSMAC-A-TTs (compare FIGS. 7H and 7I).
Further support for this view comes from analysis of the formation of stroma in H&E-stained si-NT-TTs and si-hSMAC-A-TTs (FIG. 8).
The sub-cellular localization of SMAC/Diablo in si-NT-TTs was further analyzed by immunofluorescence staining using anti-Cyto c antibodies as mitochondria markers and confocal microscopy (data not shown). It was found SMAC/Diablo and Cyto c were co-localized in si-NT-TTs. Here too, SMAC/Diablo was found in addition to mitochondria also in the nuclei.

si-hSMAC-A: siRNA to human SMAC/Diablo; sense 5′AAGCGGUGUUUCUCAGAAUUGtt3′ (SEQ ID NO:20), antisense 5′AACAAUUCUGAGAAACCCGCtt3′ (SEQ ID NO:21) (sense AAGCGGUGUUUCUCAGAAUUGTT; antisense AACAAUUCUGAGAAACCCGCTT; sense: sugars from the 5' end r21 d2, backbone not given here; antisense: sugars from the 5' end r20 d2, backbone not given here)
tumor growth of breast cancer xenografts [1]: inhibited | SMAC/Diablo by immunofluorescence in tumors ([2]; mouse, in vivo): no SMAC/Diablo was detected | expression of AT1 marker podoplanin ([2]; mouse, in vivo): higher expression levels | organization of CD31-positive cells ([2]; mouse, in vivo): organized in a manner resembling lung alveoli | staining for α-SMA ([2]; mouse, in vivo): significantly reduced | stromal structures, H&E ([2]; mouse, in vivo): massive fibrotic structures, resembling scar tissue | tumor cell organization, H&E ([2]; mouse, in vivo): organized in glandular-like clusters, surrounded by a chain of cells | vascular formations in stromal structures ([2]; mouse, in vivo): barely noticeable | staining of SP-C ([2]; vs si-NT-TTs): No significant differences | staining with Sirius red and of vimentin ([2]; vs si-NT-TTs): appeared to be similar
